Test: Unit input response, intravenous bolus plasma concentration
Format: in vivo
Details: human, read-out: Plasma Concentration of API A
Description: In predicting plasma concentration time profiles, we used two steps. First, we time scaled in vitro release profiles to use as our reference. Second, we obtained convolution of time-scaled in vitro release profile with unit input response (UIR) we obtained using intravenous bolus dose profile in a physiologically based pharmacokinetic model (PBPK).
FIG. 18 illustrates use of convolution of time-scaled in vitro release profile data (panel A, Table 4) with unit input response (UIR) obtained using an intravenous bolus dose (panel B, Table 5) to generate predictive plasma concentration-time profiles (panel C, Table 6). Panel A includes time-scaled mean in vitro release profiles of various solution-based subcutaneous long acting injectables of API. Panel C includes observed versus predicted mean plasma concentration-time profiles in humans for various solution-based subcutaneous long acting injectables of API A.

CC(C)(C#Cc1ccc(-c2ccc(Cl)c3c(NS(C)(=O)=O)nn(CC(F)(F)F)c23)c([C@H](Cc2cc(F)cc(F)c2)NC(=O)Cn2nc(C(F)(F)F)c3c2C(F)(F)[C@@H]2C[C@H]32)n1)S(C)(=O)=O [API A, Lenacapavir]
concentration at 0 days (0.00 days): 0 ng/mL | concentration at 0.04 days (0.04 days): 162 ng/mL | concentration at 0.08 days (0.08 days): 27.7 ng/mL | concentration at 0.17 days (0.17 days): 14 ng/mL | concentration at 0.25 days (0.25 days): 7.73 ng/mL | concentration at 0.33 days (0.33 days): 5.71 ng/mL | concentration at 0.5 days (0.50 days): 4.68 ng/mL | concentration at 1 days (1.00 days): 4.33 ng/mL | concentration at 2 days (2.00 days): 4.37 ng/mL | concentration at 3 days (3.00 days): 4.29 ng/mL | concentration at 5 days (5.00 days): 3.49 ng/mL | concentration at 7 days (7.00 days): 3.45 ng/mL | concentration at 9 days (9.00 days): 2.84 ng/mL | concentration at 11 days (11.00 days): 2.61 ng/mL | concentration at 14 days (14.00 days): 2.33 ng/mL | concentration at 20.92 days (20.92 days): 1.71 ng/mL | concentration at 27.92 days (27.92 days): 1.1 ng/mL | concentration at 34.96 days (34.96 days): 0.71 ng/mL | concentration at 41.96 days (41.96 days): 0.43 ng/mL | concentration at 55.96 days (55.96 days): 0.25 ng/mL

— patent US20250354970A1, “SYSTEMS, METHODS, AND APPARATUSES FOR CHARACTERIZING RELEASE PROFILES FOR LONG-ACTING INJECTABLE MEDICATIONS” (Gilead Sciences, Inc., priority 2024, published 2025)
